Source: ChEMBL document CHEMBL4507312 (2021)

Key:
[1] = target: T1, Sigma intracellular receptor 2 (Homo sapiens, UniProt Q5BJF2); test: GPCRScan assay: inhibition of Sigma 2; set-up: radioligand conc. used [nm] 5.0, parental cells HEKT
[2] = target: 5-hydroxytryptamine receptor 1A (Homo sapiens) (UniProt P08908); settings: Compound concentration 10.0 uM
[3] = target: 5-hydroxytryptamine receptor 1B (Homo sapiens) (UniProt P28222); settings: Compound concentration 10.0 uM
[4] = target: 5-hydroxytryptamine receptor 2A (Homo sapiens) (UniProt P28223); settings: Compound concentration 10.0 uM
[5] = target: 5-hydroxytryptamine receptor 2B (Homo sapiens) (UniProt P41595); settings: Compound concentration 10.0 uM
[6] = target: 5-hydroxytryptamine receptor 2C (Homo sapiens) (UniProt P28335); settings: Compound concentration 10.0 uM
Chain of 5-hydroxytryptamine receptor 2C (Homo sapiens) (P28335 whole entry): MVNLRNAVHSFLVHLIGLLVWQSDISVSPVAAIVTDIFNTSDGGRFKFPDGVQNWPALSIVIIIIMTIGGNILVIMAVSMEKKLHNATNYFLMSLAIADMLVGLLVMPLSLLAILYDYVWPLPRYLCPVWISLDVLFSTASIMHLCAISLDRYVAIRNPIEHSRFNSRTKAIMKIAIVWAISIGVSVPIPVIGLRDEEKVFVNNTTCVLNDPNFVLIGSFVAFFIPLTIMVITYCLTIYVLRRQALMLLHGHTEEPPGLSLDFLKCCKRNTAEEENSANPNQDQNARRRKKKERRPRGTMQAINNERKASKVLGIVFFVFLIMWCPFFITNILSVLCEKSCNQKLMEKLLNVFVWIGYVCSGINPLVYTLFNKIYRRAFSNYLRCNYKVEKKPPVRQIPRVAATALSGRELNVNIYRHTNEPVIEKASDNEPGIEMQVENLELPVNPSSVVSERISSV

[7] = target: 5-hydroxytryptamine receptor 3A (Homo sapiens) (UniProt P46098); settings: Compound concentration 10.0 uM
[8] = target: 5-hydroxytryptamine receptor 5A (Homo sapiens) (UniProt P47898); settings: Compound concentration 10.0 uM
Chain of 5-hydroxytryptamine receptor 5A (Homo sapiens) (P47898 whole entry): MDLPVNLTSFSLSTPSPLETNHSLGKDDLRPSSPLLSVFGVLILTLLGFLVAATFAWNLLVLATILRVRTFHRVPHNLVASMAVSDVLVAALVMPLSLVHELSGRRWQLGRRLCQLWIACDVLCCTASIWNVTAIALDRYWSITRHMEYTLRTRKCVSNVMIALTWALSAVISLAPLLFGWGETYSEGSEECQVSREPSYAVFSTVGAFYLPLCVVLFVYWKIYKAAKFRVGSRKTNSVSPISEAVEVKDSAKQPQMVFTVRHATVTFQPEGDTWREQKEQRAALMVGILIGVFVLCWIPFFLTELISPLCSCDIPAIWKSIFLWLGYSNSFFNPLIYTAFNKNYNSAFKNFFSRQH

[9] = target: 5-hydroxytryptamine receptor 6 (Homo sapiens) (UniProt P50406); settings: Compound concentration 10.0 uM
Chain of 5-hydroxytryptamine receptor 6 (Homo sapiens) (P50406 whole entry): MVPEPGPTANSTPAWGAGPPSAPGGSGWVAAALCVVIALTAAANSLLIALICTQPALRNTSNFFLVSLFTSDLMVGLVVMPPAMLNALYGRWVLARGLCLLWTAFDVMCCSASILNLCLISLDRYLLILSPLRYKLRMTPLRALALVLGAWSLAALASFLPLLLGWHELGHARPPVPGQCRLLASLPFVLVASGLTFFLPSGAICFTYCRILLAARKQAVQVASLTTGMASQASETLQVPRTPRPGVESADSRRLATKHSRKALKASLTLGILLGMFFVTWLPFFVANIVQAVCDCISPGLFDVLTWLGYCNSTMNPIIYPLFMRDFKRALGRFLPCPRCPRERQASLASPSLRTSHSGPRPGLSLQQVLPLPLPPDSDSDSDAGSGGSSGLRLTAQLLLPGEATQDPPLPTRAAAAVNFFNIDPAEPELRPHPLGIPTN

[10] = target: 5-hydroxytryptamine receptor 7 (Homo sapiens) (UniProt P34969); settings: Compound concentration 10.0 uM
[11] = target: D(4) dopamine receptor (Homo sapiens) (UniProt P21917); settings: Compound concentration 10.0 uM
[12] = target: D(1B) dopamine receptor (Homo sapiens) (UniProt P21918); settings: Compound concentration 10.0 uM
Chain of D(1B) dopamine receptor (Homo sapiens) (P21918 whole entry): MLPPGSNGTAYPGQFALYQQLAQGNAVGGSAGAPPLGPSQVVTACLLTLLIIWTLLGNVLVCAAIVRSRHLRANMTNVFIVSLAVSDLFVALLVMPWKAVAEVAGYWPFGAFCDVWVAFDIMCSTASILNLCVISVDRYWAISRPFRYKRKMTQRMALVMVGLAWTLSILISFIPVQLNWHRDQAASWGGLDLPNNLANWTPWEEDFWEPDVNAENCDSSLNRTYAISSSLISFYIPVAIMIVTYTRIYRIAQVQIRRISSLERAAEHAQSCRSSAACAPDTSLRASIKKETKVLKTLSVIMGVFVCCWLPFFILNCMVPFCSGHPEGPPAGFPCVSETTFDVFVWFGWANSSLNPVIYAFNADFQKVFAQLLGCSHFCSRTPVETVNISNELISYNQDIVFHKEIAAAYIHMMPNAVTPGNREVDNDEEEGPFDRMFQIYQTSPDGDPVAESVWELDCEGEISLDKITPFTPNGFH

[13] = target: Sodium-dependent serotonin transporter (Homo sapiens) (UniProt P31645); settings: Compound concentration 10.0 uM
Chain of Sodium-dependent serotonin transporter (Homo sapiens) (P31645 whole entry, looked up): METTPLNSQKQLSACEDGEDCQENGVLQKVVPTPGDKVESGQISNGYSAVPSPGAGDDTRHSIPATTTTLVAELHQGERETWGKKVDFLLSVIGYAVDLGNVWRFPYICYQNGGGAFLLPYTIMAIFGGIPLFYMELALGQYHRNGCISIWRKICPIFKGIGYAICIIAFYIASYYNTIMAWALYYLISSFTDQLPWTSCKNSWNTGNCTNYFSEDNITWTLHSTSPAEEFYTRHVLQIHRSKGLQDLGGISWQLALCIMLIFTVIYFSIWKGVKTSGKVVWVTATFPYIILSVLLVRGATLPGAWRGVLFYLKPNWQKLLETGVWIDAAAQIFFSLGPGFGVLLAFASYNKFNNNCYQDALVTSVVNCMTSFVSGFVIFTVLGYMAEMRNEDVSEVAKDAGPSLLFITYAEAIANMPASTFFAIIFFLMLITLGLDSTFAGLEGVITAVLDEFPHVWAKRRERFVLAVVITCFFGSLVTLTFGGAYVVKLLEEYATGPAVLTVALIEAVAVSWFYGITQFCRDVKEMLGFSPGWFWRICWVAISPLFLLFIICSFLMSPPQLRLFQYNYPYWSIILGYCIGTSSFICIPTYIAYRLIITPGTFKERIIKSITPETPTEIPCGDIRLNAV

[14] = target: Sodium-dependent noradrenaline transporter (Homo sapiens) (UniProt P23975); settings: Compound concentration 10.0 uM
[15] = target: Sodium-dependent dopamine transporter (Homo sapiens) (UniProt Q01959); settings: Compound concentration 10.0 uM
Chain of Sodium-dependent dopamine transporter (Homo sapiens) (Q01959 whole entry): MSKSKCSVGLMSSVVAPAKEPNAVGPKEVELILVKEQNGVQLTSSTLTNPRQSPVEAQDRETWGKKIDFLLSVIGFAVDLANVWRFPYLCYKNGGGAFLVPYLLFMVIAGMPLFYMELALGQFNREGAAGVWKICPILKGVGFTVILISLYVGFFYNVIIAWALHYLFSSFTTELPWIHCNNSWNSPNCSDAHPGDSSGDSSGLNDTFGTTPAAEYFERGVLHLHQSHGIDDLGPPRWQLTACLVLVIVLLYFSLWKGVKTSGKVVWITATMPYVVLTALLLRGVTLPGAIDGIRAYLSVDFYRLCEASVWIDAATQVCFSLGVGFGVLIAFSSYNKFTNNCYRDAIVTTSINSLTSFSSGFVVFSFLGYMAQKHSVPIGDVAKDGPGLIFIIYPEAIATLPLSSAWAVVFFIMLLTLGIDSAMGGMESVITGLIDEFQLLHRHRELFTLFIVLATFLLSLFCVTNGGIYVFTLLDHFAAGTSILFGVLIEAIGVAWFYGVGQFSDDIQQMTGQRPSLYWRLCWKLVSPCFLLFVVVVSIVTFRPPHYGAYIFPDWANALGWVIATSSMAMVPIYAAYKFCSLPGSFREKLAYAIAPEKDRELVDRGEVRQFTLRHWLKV

[16] = target: Mu-type opioid receptor (Homo sapiens) (UniProt P35372); settings: Compound concentration 10.0 uM
[17] = target: Delta-type opioid receptor (Homo sapiens) (UniProt P41143); settings: Compound concentration 10.0 uM
Chain of Delta-type opioid receptor (Homo sapiens) (P41143 whole entry): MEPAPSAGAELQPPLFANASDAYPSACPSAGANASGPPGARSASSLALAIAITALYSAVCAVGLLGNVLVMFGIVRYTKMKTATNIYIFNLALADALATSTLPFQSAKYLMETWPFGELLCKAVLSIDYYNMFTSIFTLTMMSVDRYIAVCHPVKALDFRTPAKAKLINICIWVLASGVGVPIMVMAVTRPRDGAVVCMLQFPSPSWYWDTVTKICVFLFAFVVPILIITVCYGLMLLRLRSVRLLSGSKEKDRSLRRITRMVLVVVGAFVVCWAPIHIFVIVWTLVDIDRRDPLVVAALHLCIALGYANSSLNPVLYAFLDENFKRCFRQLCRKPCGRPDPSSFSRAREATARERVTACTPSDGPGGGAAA

[18] = target: Kappa-type opioid receptor (Homo sapiens) (UniProt P41145); settings: Compound concentration 10.0 uM
[19] = target: Histamine H1 receptor (Homo sapiens) (UniProt P35367); settings: Compound concentration 10.0 uM
[20] = target: Histamine H4 receptor (Homo sapiens) (UniProt Q9H3N8); settings: Compound concentration 10.0 uM
[21] = target: Alpha-1A adrenergic receptor (Homo sapiens) (UniProt P35348); settings: Compound concentration 10.0 uM
[22] = target: Alpha-1B adrenergic receptor (Homo sapiens) (UniProt P35368); settings: Compound concentration 10.0 uM
[23] = target: Alpha-2A adrenergic receptor (Homo sapiens) (UniProt P08913); settings: Compound concentration 10.0 uM
[24] = target: Alpha-2B adrenergic receptor (Homo sapiens) (UniProt P18089); settings: Compound concentration 10.0 uM
Chain of Alpha-2B adrenergic receptor (Homo sapiens) (P18089 whole entry): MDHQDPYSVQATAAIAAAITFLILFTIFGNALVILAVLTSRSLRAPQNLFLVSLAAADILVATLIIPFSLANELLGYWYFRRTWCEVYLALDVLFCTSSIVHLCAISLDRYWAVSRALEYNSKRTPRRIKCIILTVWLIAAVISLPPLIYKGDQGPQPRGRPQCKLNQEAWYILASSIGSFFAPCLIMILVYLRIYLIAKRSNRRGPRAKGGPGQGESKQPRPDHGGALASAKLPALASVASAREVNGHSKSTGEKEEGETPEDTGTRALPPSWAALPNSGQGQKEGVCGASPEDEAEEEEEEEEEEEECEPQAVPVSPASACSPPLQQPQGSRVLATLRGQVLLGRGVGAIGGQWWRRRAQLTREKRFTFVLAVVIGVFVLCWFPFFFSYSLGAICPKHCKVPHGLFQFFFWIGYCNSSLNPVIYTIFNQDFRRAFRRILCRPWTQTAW

[25] = target: Alpha-2C adrenergic receptor (Homo sapiens) (UniProt P18825); settings: Compound concentration 10.0 uM
[26] = target: Beta-1 adrenergic receptor (Homo sapiens) (UniProt P08588); settings: Compound concentration 10.0 uM
[27] = target: Beta-2 adrenergic receptor (Homo sapiens) (UniProt P07550); settings: Compound concentration 10.0 uM
[28] = target: Muscarinic acetylcholine receptor M1 (Homo sapiens) (UniProt P11229); settings: Compound concentration 10.0 uM
[29] = target: Muscarinic acetylcholine receptor M2 (Homo sapiens) (UniProt P08172); settings: Compound concentration 10.0 uM
[30] = target: Muscarinic acetylcholine receptor M3 (Homo sapiens) (UniProt P20309); settings: Compound concentration 10.0 uM
[31] = target: Muscarinic acetylcholine receptor M4 (Homo sapiens) (UniProt P08173); settings: Compound concentration 10.0 uM
Chain of Muscarinic acetylcholine receptor M4 (Homo sapiens) (P08173 whole entry): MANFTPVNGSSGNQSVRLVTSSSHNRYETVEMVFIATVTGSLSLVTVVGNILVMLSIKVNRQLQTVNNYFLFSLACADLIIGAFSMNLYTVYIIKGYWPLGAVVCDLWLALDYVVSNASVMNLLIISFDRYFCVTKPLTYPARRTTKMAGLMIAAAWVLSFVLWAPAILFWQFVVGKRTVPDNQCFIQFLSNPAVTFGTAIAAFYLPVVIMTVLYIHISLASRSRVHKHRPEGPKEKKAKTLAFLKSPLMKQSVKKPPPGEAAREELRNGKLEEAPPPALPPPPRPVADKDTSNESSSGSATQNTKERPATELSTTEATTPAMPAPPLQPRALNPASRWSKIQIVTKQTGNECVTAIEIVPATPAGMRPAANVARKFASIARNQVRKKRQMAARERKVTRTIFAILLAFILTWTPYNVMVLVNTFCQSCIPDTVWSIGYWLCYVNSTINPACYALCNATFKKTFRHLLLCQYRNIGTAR

[32] = target: Muscarinic acetylcholine receptor M5 (Homo sapiens) (UniProt P08912); settings: Compound concentration 10.0 uM
[33] = target: Beta-3 adrenergic receptor (Homo sapiens) (UniProt P13945); settings: Compound concentration 10.0 uM
Rattus norvegicus = species on record: Rattus norvegicus; settings: Compound concentration 10.0 uM
[34] = target: Alpha-1D adrenergic receptor (Homo sapiens) (UniProt P25100); settings: Compound concentration 10.0 uM
[35] = target: T1, Sigma intracellular receptor 2; settings: Compound concentration 10.0 uM

T1 sequence (Q5BJF2 whole entry): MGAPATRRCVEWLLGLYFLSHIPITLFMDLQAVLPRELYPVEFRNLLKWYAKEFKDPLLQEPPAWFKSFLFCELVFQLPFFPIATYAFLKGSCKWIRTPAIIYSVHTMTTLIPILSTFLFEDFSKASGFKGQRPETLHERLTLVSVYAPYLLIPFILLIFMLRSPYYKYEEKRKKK
Chain of 5-hydroxytryptamine receptor 1B (Homo sapiens) (P28222 whole entry): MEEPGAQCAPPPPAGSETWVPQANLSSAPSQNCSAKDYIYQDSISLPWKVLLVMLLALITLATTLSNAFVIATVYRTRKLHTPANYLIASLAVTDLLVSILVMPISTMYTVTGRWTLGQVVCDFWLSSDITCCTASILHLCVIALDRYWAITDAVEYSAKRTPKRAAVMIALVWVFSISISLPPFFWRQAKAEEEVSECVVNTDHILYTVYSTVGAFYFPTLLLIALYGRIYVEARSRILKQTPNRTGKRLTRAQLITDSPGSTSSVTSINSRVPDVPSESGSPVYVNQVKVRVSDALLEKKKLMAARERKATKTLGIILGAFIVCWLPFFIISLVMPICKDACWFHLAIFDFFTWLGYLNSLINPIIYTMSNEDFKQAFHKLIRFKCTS

Ki ([1]; read-out: Ki): 5.25 µM
Ki ([1]; read-out: pKi (converted)): 4.47 µM
inhibition [2]: 0.45%
inhibition [3]: -6.09%
inhibition [4]: -7.39%
inhibition [5]: 22.8%
inhibition [6]: -1.77%
inhibition [7]: 11.7%
inhibition [8]: -6.43%
inhibition [9]: 9.36%
inhibition [10]: 15.8%
inhibition [11]: -4.56%
inhibition [12]: -2.37%
inhibition [13]: -0.39%
inhibition [14]: 0.15%
inhibition [15]: -6.74%
inhibition [16]: -1.35%
inhibition [17]: 1.01%
inhibition [18]: -0.09%
inhibition [19]: 21.2%
inhibition [20]: -0.91%
inhibition [21]: -2.65%
inhibition [22]: -4.23%
inhibition [23]: 7.06%
inhibition [24]: 13.3%
inhibition [25]: 8.56%
inhibition [26]: 23.9%
inhibition [27]: 17%
inhibition [28]: 5.35%
inhibition [29]: 16.2%
inhibition [30]: -6.6%
inhibition [31]: 10.3%
inhibition [32]: 4.72%
inhibition [33]: 17.6%
inhibition (Rattus norvegicus): -2.86%
inhibition [34]: -0.81%
inhibition [35]: 64.9%
Structure (SMILES): Cc1c(Oc2ccc(F)cc2)c(OC(C)C)nn1-c1ccc(C2CC2)cn1 [IPP/CNRS-A019]
